Read-outs that look alike come from different tables or passages of the source. Blank lines part the entries; values can stand above or below the compound they belong to.
Tested on: T1, Lip7
T1 construct: theoretical 43 kDa, 47 kDa by SEC, 37 kDa by SDS-PAGE; monomer
Test: spectrophotometric p-nitrophenol release, allosteric sigmoidal fit
Format: biochemical, Geobacillus sp. ID17
Details: 25 °C, pH 8.0, 50 mM potassium phosphate, read-out: K1/2
Excerpt: spectrophotometric p-nitrophenol release, allosteric sigmoidal fit on Lip7

Km (2% (v/v) Triton X-100, Hill n 3.2 ± 0.6): 1400 ± 100 µM
Compound: CCCCCCCCCCCCCC(=O)Oc1ccc([N+](=O)[O-])cc1 [p-nitrophenyl myristate]

Km (2% (v/v) Triton X-100, Hill n 2.4 ± 0.8): 1600 ± 300 µM
Compound: CCCCCCCC(=O)Oc1ccc([N+](=O)[O-])cc1 [p-nitrophenyl octanoate]

Second part, the compound before the results:

Compound: CC(=O)Oc1ccc([N+](=O)[O-])cc1 [p-nitrophenyl acetate]
Km (2% (v/v) Triton X-100, Hill n 1.9 ± 0.5): 3400 ± 700 µM

Compound: CCCCCCCCCC(=O)Oc1ccc([N+](=O)[O-])cc1 [p-nitrophenyl decanoate]
Km (2% (v/v) Triton X-100, Hill n 3.1 ± 1.4): 2200 ± 300 µM

Compound: CCCCCCCCCCCC(=O)Oc1ccc([N+](=O)[O-])cc1 [p-nitrophenyl laurate]
Km (2% (v/v) Triton X-100 (mixed micelles; interfacial), Hill n 1.8 ± 0.4): 1700 ± 400 µM

Source: article PMC11277018, “Recombinant Expression and Characterization of a Novel Thermo-Alkaline Lipase with Increased Solvent Stability from the Antarctic Thermophilic Bacterium Geobacillus sp. ID17” (International Journal of Molecular Sciences, 2024)
